Measurements: article PMC3171192 (Journal of medicinal chemistry, 2011)
*1 amine or outer side, *2 acyl side, *3 side chain or, on linkers, in order; H or OH if unused. Where a SMILES comes first, the peptide text is derived from it. [ ]: non-standard residue; d: D form. X1 = O=C(CCc1cccc2c1oc1c(CCN[*:1])cccc12)[*:2]

Key:
[1] = target: T1, CD2–CD58 interaction (adhesion between T cells (Jurkat, CD2) and Caco-2 cells (CD58)) (Homo sapiens, UniProt P19256); test: Lymphocyte-epithelial adhesion assay; assay type: cell-based; settings: concentration range 0.0005 to 150 µM
T1 sequence (P19256 29-250): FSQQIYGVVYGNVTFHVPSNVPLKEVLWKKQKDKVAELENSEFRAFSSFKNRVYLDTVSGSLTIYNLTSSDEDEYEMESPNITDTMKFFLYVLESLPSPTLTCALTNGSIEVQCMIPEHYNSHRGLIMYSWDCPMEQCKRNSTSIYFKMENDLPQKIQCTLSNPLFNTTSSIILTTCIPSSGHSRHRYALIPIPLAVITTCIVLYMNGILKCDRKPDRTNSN

Caco-2 cells = test: CellTiter-Glo cell viability assay, Caco-2 cells
Jurkat cells = test: CellTiter-Glo cell viability assay, Jurkat cells

| cell adhesion inhibition in the lymphocyte epithelial assay [1] [%] | Compound | toxicity effects on Caco-2 cells (Caco-2 cells) | toxicity effects on T cells (Jurkat cells) |
| --- | --- | --- | --- |
| ~18 | KGKTDAISVKAI-NH2 [control peptide] |  |  |
|  | CC[C@H](C)[C@@H]1NC(=O)[C@H](Cc2ccc(O)cc2)NC(=O)[C@H](CC(=O)O)NC(=O)CCc2cccc3c2Oc2c(cccc2-3)CCNC(=O)[C@H](CC(=O)O)NC(=O)[C@H](CC(=O)O)NC(=O)[C@H](CCCCN)NC1=O [Peptide 7] (cyclo(DD[X1]DYIK)) | did not show any toxicity effects | did not show any toxicity effects |
